According to EP4745134A1 (Jiangsu Yahong Meditech Co., Ltd., priority 2023, dated 2025):

Tests used:
[1] = system: HCT116 MTAP KO cells; test: Inhibitory activity against cell proliferation (CellTiter Glo, 6 days), HCT116 MTAP KO; assay type: cell-based; settings: for IC50: Homo sapiens, HCT-116, 144 h, HCT116 MTAP KO cells, 6 days, CellTiter Glo, read-out: HCT116 MTAP KO IC50; for Selectivity HCT 116-WT/ HCT116 MTAP KO: ratio of IC50 HCT116-WT / HCT116 MTAP KO
Procedure, shortened: (§1)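 Luminescence read-out (CellTiter Glo, 10 min shaking at room temperature) after 6 days of compound exposure; IC50 fitted against DMSO controls. Top dose 10000 nM, 4-fold steps, 8 points; 250 cells/well in McCoy's 5A + 10% FBS.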

[2] = target: PRMT5-MTA (Homo sapiens, UniProt O14744); test: Enzymatic inhibitory activity against PRMT5-MTA (AlphaScreen); assay type: biochemical; settings: read-out: IC50
Chain of PRMT5-MTA (O14744 whole entry): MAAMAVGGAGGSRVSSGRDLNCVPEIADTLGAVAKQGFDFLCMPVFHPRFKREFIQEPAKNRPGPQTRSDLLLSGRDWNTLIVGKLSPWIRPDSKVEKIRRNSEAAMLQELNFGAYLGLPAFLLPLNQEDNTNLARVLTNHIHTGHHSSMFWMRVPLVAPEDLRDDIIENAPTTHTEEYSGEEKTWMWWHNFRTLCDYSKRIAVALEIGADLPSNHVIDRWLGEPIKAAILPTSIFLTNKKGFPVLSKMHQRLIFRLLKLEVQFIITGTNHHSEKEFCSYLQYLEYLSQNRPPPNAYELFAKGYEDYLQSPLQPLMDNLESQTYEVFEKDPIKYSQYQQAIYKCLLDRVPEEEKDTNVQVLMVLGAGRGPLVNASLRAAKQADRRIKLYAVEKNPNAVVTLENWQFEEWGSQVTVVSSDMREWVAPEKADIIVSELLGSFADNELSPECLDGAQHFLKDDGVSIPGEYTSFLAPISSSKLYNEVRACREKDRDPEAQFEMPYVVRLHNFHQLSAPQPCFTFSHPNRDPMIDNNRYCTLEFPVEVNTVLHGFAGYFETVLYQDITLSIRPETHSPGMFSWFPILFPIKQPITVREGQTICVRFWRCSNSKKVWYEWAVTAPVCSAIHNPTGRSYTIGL
Chain of PRMT5-MTA (Q9BQA1 whole entry partner): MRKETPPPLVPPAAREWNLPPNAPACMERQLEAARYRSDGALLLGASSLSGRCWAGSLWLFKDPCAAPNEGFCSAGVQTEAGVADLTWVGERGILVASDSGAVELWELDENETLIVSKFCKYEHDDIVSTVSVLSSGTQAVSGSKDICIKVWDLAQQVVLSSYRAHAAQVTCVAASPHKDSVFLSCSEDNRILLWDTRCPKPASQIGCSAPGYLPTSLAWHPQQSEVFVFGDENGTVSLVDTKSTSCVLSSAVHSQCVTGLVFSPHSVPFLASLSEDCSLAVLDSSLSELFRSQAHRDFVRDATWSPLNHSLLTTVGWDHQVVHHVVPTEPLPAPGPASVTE
Procedure, shortened: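 PRMT5/[…] (1 nM) was preincubated for 30 min at room temperature with 1 µM […] and 2.5 µM SAM, then exposed to compound (10-point, 3-fold from 1000 nM) for 15 min at 23 °C. Histone H4 substrate (5 nM) was added and reacted for 45 min at 23 °C. Symmetric dimethyl-R3 H4 was detected by AlphaScreen and IC50 calculated.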

[3] = system: HCT116-WT cells; test: Inhibitory activity against cell proliferation (CellTiter Glo, 6 days), HCT116-WT; assay type: cell-based; settings: 144 h, HCT116-WT cells, 6 days, CellTiter Glo; read-out: HCT116-WT IC50
Procedure, shortened: as §1

| SMILES | IC50 [1] [nM] | Selectivity HCT 116-WT/ HCT116 MTAP KO [1] | IC50 [2] [nM] | IC50 [3] [nM] |
| --- | --- | --- | --- | --- |
| Cc1cc2cc(C(=O)N(Cc3ccc(C4(F)CCC4)cn3)N(C)c3ncccn3)ccc2nc1N [Example 287, 2-amino-N-((5-(1-fluorocyclobutyl)pyridin-2-yl)methyl)-N',3-dimethyl-N'-(pyrimidin-2-yl)quinoline-6-carbohydrazide] | 113 | 22.69 | 2.2 | 2560 |
| Cc1cc2cc(C(=O)N(Cc3ccc(C4CCC4)cn3)N(C)c3ncccn3)ccc2nc1N [Example 289, 2-amino-N-((5-cyclobutylpyridin-2-yl)methyl)-N',3-dimethyl-N'-(pyrimidin-2-yl)quinoline-6-carbohydrazide] | 53 | 13.04 | 0.9 | 691 |
| Cc1cc2cc(C(=O)N(Cc3ccc(C(C)(F)F)cn3)N(C)c3ncccn3)ccc2nc1N [Example 291, 2-amino-N-((5-(1,1-difluoroethyl)pyridin-2-yl)methyl)-N',3-dimethyl-N'-(pyrimidin-2-yl)quinoline-6-carbohydrazide] | 39 | 26.90 | 3.9 | 1050 |
| Cc1cc2cc(C(=O)N(Cc3ccc(C(C)F)cn3)N(C)c3ncccn3)ccc2nc1N (stereo not shown) [Example 292, 2-amino-N-((5-(1-fluoroethyl)pyridin-2-yl)methyl)-N',3-dimethyl-N'-(pyrimidin-2-yl)q uinoline-6-carbohydrazide] | 50 | 30.30 | 1.4 | 1520 |
| CC(=O)c1ccc(CN(C(=O)c2ccc3nc(N)c(C)cc3c2)N(C)c2ncccn2)nc1 [Example 294, N-((5-acetylpyridin-2-yl)methyl)-2-amino-N',3-dimethyl-N'-(pyrimidin-2-yl)quinoline-6-carbohydrazide] | 113 | 25.71 | 1.9 | 2900 |
| Cc1cc2cc(C(=O)N(Cc3ccc(C(C)O)cn3)N(C)c3ncccn3)ccc2nc1N (stereo not shown) [Example 295, 2-amino-N-((5-(1-hydroxyethyl)pyridin-2-yl)methyl)-N',3-dimethyl-N-(pyrimidin-2-yl) quinoline-6-carbohydrazide] | 399 | 12.38 | 2 | 4940 |
| CN(c1ncccn1)N(Cc1ccc(C(F)(F)F)cn1)C(=O)c1ccc2nc(N)c(Br)cc2c1 [Example 303, 2-amino-3-bromo-N'-methyl-N'-(pyrimidin-2-yl)-N-((5-(trifluoromethyl)pyridin-2-yl)methyl)quinoline-6-carbohydrazide] | 110 | 27.20 | 3 | 2990 |
| C=Cc1cc2cc(C(=O)N(Cc3ccc(C(F)(F)F)cn3)N(C)c3ncccn3)ccc2nc1N [Example 304, 2-amino-N'-methyl-N'-(pyrimidin-2-yl)-N-((5-(trifluoromethyl)pyridin-2-yl)methyl)-3-v inylquinoline-6-carbohydrazide] | 204 | 17.81 | 3.9 | 3630 |
| CCc1cc2cc(C(=O)N(Cc3ccc(C(F)(F)F)cn3)N(C)c3ncccn3)ccc2nc1N [Example 305, 2-amino-3-ethyl-N'-methyl-N'-(pyrimidin-2-yl)-iN-((5-(trifluoromethyl)pyridin-2-yl)methyl)quinoline-6-carbohydrazide] | 85 | 19.60 | 2.3 | 1670 |
| Cc1cc2cc(C(=O)N(Cc3ccc(C(F)(F)F)cn3)N(C)c3ncccn3)ncc2nc1N [Example 306, 2-amino-N',3-dimethyl-N'-(pyrimidin-2-yl)-N-((5-(trifluoromethyl)pyridin-2-yl)methyl) -1,7-naphthyridine-6-carbohydrazide] | 319 | 12.15 | 4.9 | 3880 |
| CN(c1ncccn1)N(Cc1ccc(C(F)(F)F)cn1)C(=O)c1ccc2nc(N)c3cnccc3c2c1 [Example 308, 5-amino-N'-methyl-N'-(pyrimidin-2-yl)-N-((5-(trifluoromethyl)pyridin-2-yl)methyl)ben zo[c][2,7]naphthyridine-9-carbohydrazide] | 11 | 19.64 | 1.1 | 216 |
| [2H]C([2H])([2H])c1cc2cc(C(=O)N(Cc3ccc(C(F)(F)F)cn3)N(C)c3ncccn3)ccc2nc1N [Example 310, 2-amino-N'-methyl-3-(methyl-d3)-N'-(pyrimidin-2-yl)-N-((5-(trifluoromethyl)pyridin-2-yl)methyl)quinoline-6-carbohydrazide] | 33 | 34.09 | 1.8 | 1120 |
| [2H]C([2H])([2H])c1cc2cc(C(=O)N(Cc3ccc(C(F)(F)F)cn3)N(c3ncccn3)C([2H])([2H])[2H])ccc2nc1N [Example 311, 2-amino-N',3-bis(methyl-D3)-N'-(pyrimidin-2-yl)-N-((5-(trifluoromethyl)pyridin-2-yl)methyl)quinoline-6-carbohydrazide] | 59 | 29.78 | 3 | 1760 |
| [2H]C([2H])([2H])c1cc2cc(C(=O)N(Cc3ccc(C(F)(F)F)cn3)N(C)c3nccc4nccnc34)ccc2nc1N [Example 313, 2-amino-N'-methyl-3-(methyl-d3)-N'-(pyrido[3,4-b]pyrazin-5-yl)-N-((5-(trifluoromethyl)pyridin-2-yl)methyl)quinoline-6-c arbohydrazide] | 38 | 13.37 | 4.2 | 508 |
| [2H]C([2H])([2H])c1cc2cc(C(=O)N(Cc3ccc(C(F)(F)F)cn3)N(c3ncccn3)C3CC3)ccc2nc1N [Example 314, 2-amino-N'-cyclopropyl-3-(methyl-D3)-N'-(pyrimidin-2-yl)-N-((5-(trifluoromethyl)pyridin-2-yl)methyl)quinoline-6-carbo hydrazide] | 12 | 23.58 | 4.7 | 283 |
| [2H]C([2H])([2H])c1cc2cc(C(=O)N(Cc3ccc(-c4scnc4C)cn3)N(c3ncccn3)C3CC3)ccc2nc1N [Example 316, 2-amino-N'-cyclopropyl-3-(methyl-D3)-N-((5-(4-methylthiazol-5-yl)pyridin-2-yl)methyl)-N'-(pyrimidin-2-yl)quinoline-6-c arbohydrazide] | 11 | 19.55 | 6.8 | 215 |
| [2H]C([2H])([2H])c1cc2cc(C(=O)N(Cc3ccc(-c4sc(C)nc4C)cn3)N(c3ncccn3)C3CC3)ccc2nc1N [Example 317, 2-amino-N'-cyclopropyl-N-((5-(2,4-dimethylthiazol-5-yl)pyridin-2-yl)methyl)-3-(methyl-D3)-N'-(pyrimidin-2-yl)quinoline-6-carbohydrazide] | 23 | 10.48 | 6.4 | 241 |
| [2H]C([2H])([2H])c1cc2cc(C(=O)N(Cc3ccc(-c4cncs4)cn3)N(C)c3ncccn3)ccc2nc1N [Example 318, 2-amino-N'-methyl-3-(methyl-D3)-N'-(pyrimidin-2-yl)-N-((5-(thiazol-5-yl)pyridin-2-yl)methyl)quinoline-6-carbohydrazide] | 16 | 21.13 | 6.3 | 338 |
| Nc1nc2ccc(C(=O)N(Cc3ccc(C(F)(F)F)cn3)N(c3ncccn3)C3CC3)cc2cc1CO [Example 320, 2-amino-N'-cyclopropyl-3-(hydroxymethyl)-N'-(pyrimidin-2-yl)-N-((5-(trifluoromethyl)pyridin-2-yl)methyl)quinoline-6-carbohydrazide] | 102 | 24.70 | 5.5 | 2520 |
| CN(c1ncccn1)N(Cc1ccc(-c2cnn(C(F)(F)F)c2)cn1)C(=O)c1ccc2nc(N)c(CO)cc2c1 [Example 322, 2-amino-3-(hydroxymethyl)-N'-methyl-N '-(pyrimidin-2-yl)-N-((5-(1-(trifluoromethyl)-1H-pyrazol-4-yl)pyridin-2-yl)methyl) quinoline-6-carbohydrazide] | 268 | 16.31 | 4.4 | 4370 |
| CN(c1ncccn1)N(Cc1ccc(C(F)(F)F)cn1)C(=O)c1ccc2nc(N)c(CO)cc2c1 [Example 325, 2-amino-3-hydroxymethyl-N'-methyl-N'-(pyrimidin-2-yl)-N-((5-(trifluoromethyl)pyridin-2-yl)methyl)quinoline-6-carbohydrazide] | 82 | 38.72 | 2.3 | 3180 |
| Cc1cc2nc(N)c3cnn(C)c3c2cc1C(=O)N1CC(C)CN1c1ncccc1F (stereo not shown) [Example 328, (4-amino-1,7-dimethyl-1H-pyrazolo[4,3-c]quinolin-8-yl)(2-(3-fluoropyridin-2-yl)-4-methylpyrazolidin-1-yl)methanone] | 38 | 61.63 | 6.5 | 2340 |
